Laboratory results reported in ChEMBL document CHEMBL1201862, “PubChem BioAssay data set” (2004).
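Where inhibition never reached the appropriate level, the endpoint shown equals the highest concentration tested. Otherwise, values were interpolated linearly from a five-concentration, 48-hour dose response in 96-well plates. Abbreviation: GI50, concentration required for 50% inhibition of growth.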 Calls of active or inactive are those of the source. Cut-off read from the data, not from the text of the source: active = GI50 up to about 1.1 µM and inactive = higher.

Key:
Assay in all cases: NCI tumour cell line growth inhibition, 48 h
CAKI-1 = system: CAKI-1
HCC 2998 = system: HCC 2998
OVCAR-8 = system: OVCAR-8
DMS-114 = system: DMS-114
BT-549 = system: BT-549
OVCAR-4 = system: OVCAR-4
SNB-19 = system: SNB-19
NCI-H460 = system: NCI-H460
MCF7 = system: MCF7
UO-31 = system: UO-31
T47D = system: T47D
HCT-15 = system: HCT-15
SNB-75 = system: SNB-75
ACHN = system: ACHN
SN12C = system: SN12C
NCI-H226 = system: NCI-H226
RXF 393 = system: RXF 393
CCRF-CEM = system: CCRF-CEM
SW-620 = system: SW-620
NCI-H522 = system: NCI-H522

SMILES	GI50 (CAKI-1)	GI50 (HCC 2998)	GI50 (OVCAR-8)	GI50 (DMS-114)	GI50 (BT-549)	GI50 (OVCAR-4)	GI50 (SNB-19)	GI50 (NCI-H460)	GI50 (MCF7)	GI50 (UO-31)	GI50 (T47D)	GI50 (HCT-15) [µM]	GI50 (SNB-75)	GI50 (ACHN)	GI50 (SN12C)	GI50 (NCI-H226)	GI50 (RXF 393)	GI50 (CCRF-CEM)	GI50 (SW-620)	GI50 (NCI-H522)
COc1cc(NCc2ccc3nc(N)nc(N)c3c2C)cc(OC)c1OC	0.194 µM (active)	0.109 µM (active)	0.0262 µM (active)	0.025 µM (active)	0.685 µM (active)	22.4 µM (inactive)	0.0597 µM (active)	0.025 µM (active)	0.0308 µM (active)	1.05 µM (active)	0.0658 µM (active)	0.025	4.37 µM (inactive)	0.000395 µM (active)	0.0316 µM (active)	11.4 µM (inactive)	2.15 µM (inactive)	0.025 µM (active)	0.025 µM (active)	
COc1cc2c3c(c1OC)-c1ccccc1C(C(OC(C)=O)c1ccccc1)C3N(C)CC2 (stereo not drawn)	63 µM (inactive)	6.81 µM (inactive)	34.8 µM (inactive)	28.4 µM (inactive)		9.16 µM (inactive)	48.4 µM (inactive)	30.5 µM (inactive)		57.1 µM (inactive)		27.7	31.9 µM (inactive)	14.8 µM (inactive)	34.7 µM (inactive)	47.2 µM (inactive)	70.6 µM (inactive)	25.1 µM (inactive)	65.3 µM (inactive)	49.2 µM (inactive)
Cc1cn(C2CC(O)C(CO)O2)c(=O)[nH]c1=O (stereo not drawn)	1420 µM (inactive)	3680 µM (inactive)	1590 µM (inactive)	728 µM (inactive)	> 5000 µM (inactive)	> 3890 µM (inactive)	1730 µM (inactive)	655 µM (inactive)	325 µM (inactive)	3670 µM (inactive)	> 4080 µM (inactive)	3370	3630 µM (inactive)	1840 µM (inactive)	1220 µM (inactive)	3780 µM (inactive)	2510 µM (inactive)	54.7 µM (inactive)	2130 µM (inactive)	1690 µM (inactive)
CCN(CC)CCC(=O)N1C/C(=C/c2ccccc2)C(=O)/C(=C\c2ccccc2)C1	2.3 µM (inactive)	0.706 µM (active)	1.35 µM (inactive)	1.79 µM (inactive)	0.363 µM (active)	2.17 µM (inactive)	2.2 µM (inactive)	3.24 µM (inactive)	0.372 µM (active)	1.71 µM (inactive)	1.19 µM (inactive)	1.24	4.08 µM (inactive)	2.78 µM (inactive)	1.3 µM (inactive)	5.32 µM (inactive)	1.51 µM (inactive)	0.219 µM (active)	0.195 µM (active)	0.746 µM (active)
CCOC(=O)[C@H]1Nc2ccc([N+](=O)[O-])cc2C2c3ccccc3CC21 (stereo partly drawn)	27.8 µM (inactive)	21.3 µM (inactive)	21.4 µM (inactive)	15.9 µM (inactive)		18.4 µM (inactive)	28.4 µM (inactive)	18.8 µM (inactive)		15 µM (inactive)		15.3	26 µM (inactive)	23.6 µM (inactive)	15.5 µM (inactive)	19.1 µM (inactive)	4.53 µM (inactive)	0.337 µM (active)	11.9 µM (inactive)	6.7 µM (inactive)
CCCCCCCCCC[S+]([O-])CC(CO)NC(=O)/C=C/c1c(C)nc(O)nc1O (stereo not drawn)		0.244 µM (active)		0.152 µM (active)	10.5 µM (inactive)	0.199 µM (active)			0.252 µM (active)	1.28 µM (inactive)	20.8 µM (inactive)	1.28	0.272 µM (active)	13.4 µM (inactive)	0.126 µM (active)	0.8 µM (active)	0.474 µM (active)	0.136 µM (active)	0.535 µM (active)	0.0938 µM (active)
COC1=CC(=O)c2c(O)c3c(c(O)c2C1=O)C=C(C)OC3O (stereo not drawn)	3.52 µM (inactive)	1.56 µM (inactive)	0.849 µM (active)	1.23 µM (inactive)	2.07 µM (inactive)	1.92 µM (inactive)	2.48 µM (inactive)	1.35 µM (inactive)	0.39 µM (active)	4.04 µM (inactive)	2.13 µM (inactive)	0.349	1.57 µM (inactive)	2.1 µM (inactive)	0.877 µM (active)	2.9 µM (inactive)	1.05 µM (active)	1.64 µM (inactive)	0.828 µM (active)	1.45 µM (inactive)
CC1=C(SC#N)S(=O)(=O)N(c2ccccc2)C(C)=C1SC#N	45.2 µM (inactive)	> 100 µM (inactive)	15.1 µM (inactive)	5.92 µM (inactive)		33.3 µM (inactive)	25.1 µM (inactive)	32.8 µM (inactive)		24.4 µM (inactive)		46	27 µM (inactive)	44 µM (inactive)	56.6 µM (inactive)	36.2 µM (inactive)	21.8 µM (inactive)	17.5 µM (inactive)	41.8 µM (inactive)	18 µM (inactive)
CCCCCCCCCCCCC(CC)CCCCC(=O)O (stereo not drawn)	> 100 µM (inactive)	> 100 µM (inactive)	> 100 µM (inactive)	> 100 µM (inactive)		> 100 µM (inactive)	> 100 µM (inactive)	> 62.4 µM (inactive)		> 100 µM (inactive)		> 100	> 100 µM (inactive)	> 100 µM (inactive)	> 83 µM (inactive)	> 100 µM (inactive)	> 60 µM (inactive)	22.6 µM (inactive)	> 61.2 µM (inactive)	> 100 µM (inactive)
